# From patent publication US8664257B2, “Oxygen-substituted 3-heteroaroylamino-propionic acid derivatives and their use as pharmaceuticals” (Sanofi, priority 2010, dated 2014)
# Target: T1, Recombinant human cathepsin A (Homo sapiens, UniProt P10619)
# T1 construct: Recombinant human cathepsin A (residues 29-480, with a C-terminal 10-His tag); 10-His (C); purchased R&D Systems 1049-SE
# T1 sequence (P10619 29-312 limits assumed): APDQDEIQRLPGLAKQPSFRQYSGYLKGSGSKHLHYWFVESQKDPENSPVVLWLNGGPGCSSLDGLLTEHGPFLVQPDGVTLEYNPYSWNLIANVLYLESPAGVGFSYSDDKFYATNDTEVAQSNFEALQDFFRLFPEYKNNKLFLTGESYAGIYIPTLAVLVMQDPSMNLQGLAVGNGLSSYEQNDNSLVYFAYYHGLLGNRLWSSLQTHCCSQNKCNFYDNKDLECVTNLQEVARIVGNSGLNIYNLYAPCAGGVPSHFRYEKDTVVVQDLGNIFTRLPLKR
# T1 sequence (P10619 327-480 limits assumed): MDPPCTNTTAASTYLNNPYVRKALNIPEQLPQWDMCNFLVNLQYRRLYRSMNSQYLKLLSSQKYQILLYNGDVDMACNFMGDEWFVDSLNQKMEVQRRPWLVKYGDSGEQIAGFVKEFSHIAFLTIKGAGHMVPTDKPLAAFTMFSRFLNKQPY
# Test: Cathepsin A inhibitory activity
# Assay type: biochemical
# Conditions: recombinant human cathepsin A; read-out: Activity (2): Cathepsin A inhibitory activity, IC50 class
# Method in brief: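 Human cathepsin A (res. 29-480, C-His10) pre-activated with cathepsin L (MES pH 6.0, DTT, 15 min, 37 °C; quenched with 10 μM E-64). Enzyme (833 ng/ml) preincubated 15 min RT with compound in MES pH 5.5/DTT, then 2 μM Bodipy FL-bradykinin for 15 min RT. Capillary electrophoresis product/substrate peak areas; IC50 from % inhibition.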
row,SMILES,IC50 [nM]
1,"COc1cc(C(=O)N[C@@H](CC(=O)Nc2cc(C)[nH]n2)c2ccccc2C)nn1-c1ccccc1F [Example 923, 1-(2-Fluoro-phenyl)-5-methoxy-1H-pyrazole-3-carboxylic acid [(S)-2-(5-methyl-1H-pyrazol-3-ylcarbamoyl)-1-o-tolyl-ethyl]-amide]",1000 to 30000
2,"COc1cc(C(=O)N[C@@H](CC(=O)NCC(C)(C)C)c2ccccc2C)nn1-c1ccccc1F [Example 924, 1-(2-Fluoro-phenyl)-5-methoxy-1H-pyrazole-3-carboxylic acid [(S)-2-(2,2-dimethyl-propylcarbamoyl)-1-o-tolyl-ethyl]-amide]",< 100
3,"COc1cc(C(=O)N[C@@H](CC(=O)NCC(C)(C)CO)c2ccccc2C)nn1-c1ccccc1F [Example 925, 1-(2-Fluoro-phenyl)-5-methoxy-1H-pyrazole-3-carboxylic acid [(S)-2-(3-hydroxy-2,2-dimethyl-propylcarbamoyl)-1-o-tolyl-ethyl]-amide]",1000 to 30000
4,"COc1cc(C(=O)N[C@@H](CC(=O)NCC#N)c2ccccc2C)nn1-c1ccccc1F [Example 926, 1-(2-Fluoro-phenyl)-5-methoxy-1H-pyrazole-3-carboxylic acid [(S)-2-(cyanomethyl-carbamoyl)-1-o-tolyl-ethyl]-amide]",1000 to 30000
5,"COc1cc(C(=O)N[C@@H](CC(=O)N[C@@H](CO)C(C)C)c2ccccc2C)nn1-c1ccccc1F [Example 927, 1-(2-Fluoro-phenyl)-5-methoxy-1H-pyrazole-3-carboxylic acid [(S)-2-((R)-1-hydroxymethyl-2-methyl-propylcarbamoyl)-1-o-tolyl-ethyl]-amide]",100 to 1000
6,COc1cc(C(=O)N[C@@H](CC(=O)NCc2nnn[nH]2)c2ccccc2C)nn1-c1ccccc1F [Example 928],100 to 1000
7,COc1cc(C(=O)N[C@@H](CC(=O)NC(C)C)c2ccccc2C)nn1-c1ccccc1F [Example 929],100 to 1000
8,"COc1cc(C(=O)N[C@@H](CC(=O)Nc2ccn(C)n2)c2ccccc2C)nn1-c1ccccc1F [Example 930, 1-(2-Fluoro-phenyl)-5-methoxy-1H-pyrazole-3-carboxylic acid [(S)-2-(1-methyl-1H-pyrazol-3-ylcarbamoyl)-1-o-tolyl-ethyl]-amide]",100 to 1000
9,"COc1cc(C(=O)N[C@@H](CC(=O)NC2CCNC2=O)c2ccccc2C)nn1-c1ccccc1F (stereo partly drawn) [Example 931, 1-(2-Fluoro-phenyl)-5-methoxy-1H-pyrazole-3-carboxylic acid [(S)-2-(2-oxo-pyrrolidin-3-ylcarbamoyl)-1-o-tolyl-ethyl]-amide]",1000 to 30000
10,"COc1cc(C(=O)N[C@@H](CC(=O)Nc2cc(C)on2)c2ccccc2C)nn1-c1ccccc1F [Example 932, 1-(2-Fluoro-phenyl)-5-methoxy-1H-pyrazole-3-carboxylic acid [(S)-2-(5-methyl-isoxazol-3-ylcarbamoyl)-1-o-tolyl-ethyl]-amide]",100 to 1000
11,"COc1cc(C(=O)N[C@@H](CC(=O)NC2CC2)c2ccccc2C)nn1-c1ccccc1F [Example 933, 1-(2-Fluoro-phenyl)-5-methoxy-1H-pyrazole-3-carboxylic acid ((S)-2-cyclopropylcarbamoyl-1-o-tolyl-ethyl)-amide]",< 100
12,"COc1cc(C(=O)N[C@@H](CC(=O)NCc2ccno2)c2ccccc2C)nn1-c1ccccc1F [Example 934, 1-(2-Fluoro-phenyl)-5-methoxy-1H-pyrazole-3-carboxylic acid {(S)-2-[(isoxazol-5-ylmethyl)-carbamoyl]-1-o-tolyl-ethyl}-amide]",< 100
13,"COCCNC(=O)C[C@H](NC(=O)c1cc(OC)n(-c2ccccc2F)n1)c1ccccc1C [Example 935, 1-(2-Fluoro-phenyl)-5-methoxy-1H-pyrazole-3-carboxylic acid [(S)-2-(2-methoxy-ethylcarbamoyl)-1-o-tolyl-ethyl]-amide]",< 100
